Read-outs that look alike come from different tables or passages of the source.

The text below walks through data of patent publication US7285621B2, “Multiple branch peptide construction” (Ambrilia Biopharma, priority 1999, dated 2007).

In test [1] the test system is HIV-1NL4-3. The test is described as follows: HIV-1NL4-3 infection of C8166 cells (syncytia formation, p24 ELISA). It counts as cell-based. Also noted: key to Syncytium formation: ++: number of syncytia present in the well were similar to that in control untreated well (35 to 40 syncitia per well); −: total absence of syncitia in the well; ±: presence of 1 to 3 syncitia in the well. To be noted: for HIV inhibition characteristics: Table 3, C8166 cells; for P24 / Syncytium formation: C8166 cells; for inhibition of syncytium formation and p24 production of HIV-infected cells: 5 μM. As to the method:
C8188 cells were infected with HIV to establish a baseline control. Similar C8188 cells were pretreated the invented MBPCs and then subjected to HIV to determine inhibition rates. The results are illustrated in FIGS. 1A, 1B and 2.
Samples of 3×10^5 C8166 cells were placed in 96-well plates in a volume of 100 μl of culture medium containing various concentrations of peptide. After a one hour treatment at 37° C., 100 μl of viral solution of HIV-1NL4-3 were added. The cells were exposed to the virus of one hour at 37° C. at a multiplicity of infection of 1,000 TCID50 per ml. After through washing, cells were replaced in 1 ml of R10 with the treatment in 24-well plates and cultured in a 37° C. incubator. C8166 culture medium was replaced at day-4 post-infection. During this assay, treatment with peptide was permanent (before, during and after infection). Assays on C8166 cells have been performed at least twice and in duplicate. Toxicity was evaluated by daily cell count and trypan-blue exclusion assay. Infection of C8166 T-Cells with HIV-1NL4-3 was assessed by virus-induced cytopathic effect (syncytia formation) and by quantification of p24 viral protein in the culture supernatants. Measurements of HIV-1 p24^gag concentrations in the culture supernatants were achieved by ELISA, with a detection cut-off of 5 pg/ml (p24 HIV kit, NEN Dupont, Belgium; Quanti-Kine software, RILAB, Genova, Italy).

Test [2] relates to HIV-1NL4-3. In words: HIV-1NL4-3 infection of human PBLs/PBMCs (p24 ELISA). The class given is cell-based. As for the experimental part: Human peripheral blood lymphocytes (PBLs) obtained from healthy HIV-seronegative donor (Etablissement Francais du Sang, Marseille, France) were isolated by ficoll-Hypaque gradient centrifugation. Cells were cultured in R10 medium supplemented with 20 units/ml of interleukin-2 (IL-2, Proleukin, Chiron, The Netherlands). R10 medium consists of RPMI 1640 supplemented with 2 mM ultraglutamine (BioWhittaker, Vervires, Belgium), penicillin (100 units/ml), streptomycin (100 μg/ml), and 10% heat-inactivated fetal calf serum (BioWhittaker). Cells were first stimulated with phytohemaggiutinin (20 μg/ml)-supplemented R10 (PHA P, DIFCO, Detroit, Mich., USA) for three days. Then, the medium was replaced with R10 supplemented with IL2 (20 units/ml), and subsequently cultures and experiments were carried out in this medium in a 37° C. humidified incubator with 5% CO2.
Samples of 10^6 human PBLs were placed in 96-well plates in 100 μl of R10 containing various concentrations of peptide. After one hour treatment of 37° C., 100 μl of viral solution of HIV-1NL4-3 were added. The cells were exposed to the virus for one hour at 37° C. flushed with 5% CO2. The PBL culture medium was replaced every 3-4 days. The cell viability was assessed by cell counts and trypan-blue exclusion assay. The viral production in the culture supernatant was quantified by p24 ELISA test, as described supra. […]

Another test has as its system HIV-1 and HIV-2 viruses. In words: In vitro inhibition of HIV-induced syncytium formation and infection of human lymphocytes. The class given is cell-based. The conditions noted are these: HIV-1 and HIV-2 laboratory strains and clinical isolates.
A further test has as its system H × 10 (HIV-1) strain. As to the method: SPC3 is (GPGRAF)8-(K)4-(K)2-K-βA-OH as disclosed in WO95/07929. D4 and D5 refer to days 4 and 5 of the experiment. OD stands for Optical Density. N.B. Experiments were performed with non diluted virus solution.
The subject of another test is HIV-1 W5A2A9 isolate. In words: Inhibition of clinical isolates infectivity. It counts as cell-based. To be noted: non-diluted virus solution. From the text:
The gp41-derived MBPCs of the invention have been tested in vitro for their ability to inhibit HIV-induced syncytium formation, and infection of human lymphocytes by both HIV-1 and HIV-2 viruses (several laboratory strains including LAV-2B, an HIV-2 virus able to infect some CD4^−/GalCer^− cells, as well as clinical isolates such as JRCSF, P16/B6 and P16/C9). […] Similar results were obtained with other HIV strains and clinical isolates tested so far.
Example shown is the HIV-1 W5A2A9 isolate. N.B. Experiments were performed with non-diluted virus solution.

The mark [3] stands for this setting: Molarity 1 × 10^−5, day 4, non diluted virus solution.
The mark [4] stands for this setting: Molarity 1 × 10^−6, day 4, non diluted virus solution.
[5] abbreviates: Molarity 5 × 10^−5, day 4, non diluted virus solution.
The mark [6] stands for this setting: Molarity 5 × 10^−5, day 5, non diluted virus solution.
[7] abbreviates: Molarity 5 × 10^−6, day 4, non diluted virus solution.

Turning to (RQGYS)2-K-βA-OH [Peptide 2], the HIV inhibition characteristics result in the test with HIV-1NL4-3 [1] is listed as “superior HIV inhibition characteristics”. Besides, the P24 with HIV-1NL4-3 [1] (peptide 1 μm) and in the test with HIV-1NL4-3 [1] (peptide 10 μm) was 0 pg/mL throughout. Further, the Syncytium formation entry with HIV-1NL4-3 [1] (peptide 1 μm) and with HIV-1NL4-3 [1] (peptide 10 μm) was “−” each time.

Regarding (KQGYSPL)2-K-βA [Peptide 10], the Syncytium formation result in the test with HIV-1NL4-3 [1] (peptide 1 μm) and in the test on HIV-1NL4-3 [1] (peptide 10 μm) was “++ (number of syncytia present in the well were similar to that in control untreated well (35 to 40 syncitia per well))” in each case.

Take (RQGYSPL)2-K-βA [Peptide 11]: in the test with HIV-1NL4-3 [1] (0.1 micro-molar (μm), FIG. 1, C8166 cells), the “viral activity relative to controls” value is given as “one tenth that seen in controls”. The viral activity entry in the test with HIV-1NL4-3 [1] (5 μm, FIG. 1, C8166 cells) is “virtually no activity”; in the test with HIV-1NL4-3 [1] (10 μm, FIG. 1, C8166 cells), “no viral activity”. The “inhibition of syncytium formation and p24 production” value with HIV-1NL4-3 [1] (HIV-1NL403 infected C8166 cells, FIG. 1) is “marked inhibition”. Also, the HIV inhibition characteristics result with HIV-1NL4-3 [1] is given as “superior HIV inhibition characteristics”. Further, the P24 with HIV-1NL4-3 [1] (peptide 1 μm) and with HIV-1NL4-3 [1] (peptide 10 μm) was 0 pg/mL in each case. Also, the Syncytium formation result with HIV-1NL4-3 [1] (peptide 1 μm) and with HIV-1NL4-3 [1] (peptide 10 μm) was “−” each time. Also, in the test on HIV-1NL4-3 [2] (0.1 μM, FIG. 2), the “inhibition of HIV-1NL403 infected PBMCs” value is 100%.

Take (LPSYGQR)8-K4-K2—K-βA: the “inhibition of syncytium formation and p24 production of HIV-infected cells” value with HIV-1NL4-3 [1] amounted to 100%.

With (RQGYSP)2-K-βA [Peptide 1], the Syncytium formation entry in the test on HIV-1NL4-3 [1] (peptide 10 μm) is listed as “−”.

Consider RQGYSPL [monomeric RQGYSPL], for which the “antiviral properties (HIV-induced syncytium formation, infection of human lymphocytes)” value in the test with HIV-1 and HIV-2 viruses was “inactive”.

Regarding (AcRQGYSPL)2-K-βA [Peptide 12], the Syncytium formation result in the test with HIV-1NL4-3 [1] (peptide 1 μm) and with HIV-1NL4-3 [1] (peptide 10 μm) was “++ (number of syncytia present in the well were similar to that in control untreated well (35 to 40 syncitia per well))” each time.

In the case of (YSPL)2-K-βA [Peptide 7], the Syncytium formation result in the test with HIV-1NL4-3 [1] (peptide 1 μm) and in the test on HIV-1NL4-3 [1] (peptide 10 μm) was “± (presence of 1 to 3 syncitia in the well)” throughout.

As to (QGYSPL)2-K-βA [Peptide 5], the Syncytium formation entry with HIV-1NL4-3 [1] (peptide 1 μm) is recorded as “± (presence of 1 to 3 syncitia in the well)”; with HIV-1NL4-3 [1] (peptide 10 μm), “−”.

On to (RQGY)2-K-βA [Peptide 3], for which the Syncytium formation entry in the test with HIV-1NL4-3 [1] (peptide 1 μm) and in the test with HIV-1NL4-3 [1] (peptide 10 μm) was “± (presence of 1 to 3 syncitia in the well)” each time.

For “(RQGY)8-(K)4-(K)2-K-βA-OH [(RQGY)8-K4-K2-K-βA]”, the “inhibition of syncytium formation and p24 production of HIV-infected cells” value in the test with HIV-1NL4-3 [1] was 100%.

(D RQGYSPL)2-K-βA [Peptide 9]: the Syncytium formation result in the test with HIV-1NL4-3 [1] (peptide 1 μm) and in the test with HIV-1NL4-3 [1] (peptide 10 μm) was “++ (number of syncytia present in the well were similar to that in control untreated well (35 to 40 syncitia per well))” each time.

With (RQG)2-K-βA [Peptide 4], the values for the Syncytium formation result in the test with HIV-1NL4-3 [1] (peptide 1 μm) and in the test with HIV-1NL4-3 [1] (peptide 10 μm) were “± (presence of 1 to 3 syncitia in the well)” and “−”, respectively.

As to (GPGRAF)8-(K)4-(K)2-K-βA-OH [SPC3], the Inhibition worked out at 89.13% in the test with H × 10 (HIV-1) strain (setting [3]); 0% with H × 10 (HIV-1) strain (setting [4]); 98.89% in the test on H × 10 (HIV-1) strain (setting [5]); 98.47% in the test on H × 10 (HIV-1) strain (setting [6]); 50.78% in the test with H × 10 (HIV-1) strain (setting [7]). The p24 in the test with H × 10 (HIV-1) strain (setting [3]) is 0.4865 ng/mL; in the test with H × 10 (HIV-1) strain (setting [4]) it was 4.786 ng/mL; in the test on H × 10 (HIV-1) strain (setting [5]), 0.05556 ng/mL; in the test with H × 10 (HIV-1) strain (setting [6]), 0.09351 ng/mL; in the test with H × 10 (HIV-1) strain (setting [7]), 2.216 ng/mL. Further, the “Inhibition (%) of clinical isolates infectivity” value in the test on HIV-1 W5A2A9 isolate ([conc] 1 × 10^−5, HIV-1 W5A2A9 isolate) is 85.7%; in the test with HIV-1 W5A2A9 isolate ([conc] 1 × 10^−6, HIV-1 W5A2A9 isolate) it was 28.6%; in the test on HIV-1 W5A2A9 isolate ([conc] 1 × 10^−7, HIV-1 W5A2A9 isolate), 0%; in the test on HIV-1 W5A2A9 isolate ([conc] 5 × 10^−6, HIV-1 W5A2A9 isolate), 50.0%; in the test on HIV-1 W5A2A9 isolate ([conc] 5 × 10^−7, HIV-1 W5A2A9 isolate), 0%; with HIV-1 W5A2A9 isolate ([conc] 5 × 10^−8, HIV-1 W5A2A9 isolate) it was 0%.

As for (D-LPSYGQR)8-K4-K2-K-βA, the “inhibition of HIV infection of C8166 cells” value in the test with HIV-1NL4-3 [1] (at a concentration of 1 μM) is on record as “totally inhibit”. In addition, the “inhibition of HIV infection of PBMCs” value in the test on HIV-1NL4-3 [2] (at a concentration of 1 μM) was “totally inhibit”.

For (GYSPL)2-K-βA [Peptide 6], the Syncytium formation result in the test with HIV-1NL4-3 [1] (peptide 1 μm) and with HIV-1NL4-3 [1] (peptide 10 μm) was “± (presence of 1 to 3 syncitia in the well)” throughout.

For the molecule `Cc1cn([C@H]2C[C@H](N=[N+]=[N-])[C@@H](CO)O2)c(=O)[nH]c1=O` [AZT, reference compound], in the test on HIV-1NL4-3 [1] (peptide 1 μm), the P24 was found to be 0 pg/mL and the Syncytium formation entry was “−”. In the test on HIV-1NL4-3 [1] (peptide 10 μm), the P24 was found to be 0 pg/mL and the Syncytium formation result is reported as “−”.

As for (SPL)2-K-βA [Peptide 8], the Syncytium formation entry is listed as “++ (number of syncytia present in the well were similar to that in control untreated well (35 to 40 syncitia per well))” in the test with HIV-1NL4-3 [1] (peptide 1 μm) and “± (presence of 1 to 3 syncitia in the well)” in the test on HIV-1NL4-3 [1] (peptide 10 μm).
